Source: US20210330611A1, “THERAPY FOR NEUROLOGICAL DISEASES/DISORDERS” (priority 2020, published 2021)
Where a name gives a salt, the structure may show the parent alone. Read-outs that look alike come from different tables or passages of the source.

Experiments:
[1] = system: fibrin-induced microglia activation; assay: Image-based assay of fibrin-induced microglia activation (HTS and dose response); format: cell-based, rat; details: for IC50 / inhibition at 10 µM: Rattus norvegicus, Microglia; for inhibition at 10 µM: primary microglia HTS, fibrin stimulation, read-out: Fibrin % inhibition
[2] = system: LPS-induced microglia activation; assay: Image-based assay of LPS-induced microglia activation (HTS and dose response); format: cell-based, rat; details: Rattus norvegicus, Microglia; for inhibition at 10 µM: primary microglia HTS, LPS stimulation, read-out: LPS % inhibition
[3] = system: fibrin- and LPS-induced microglia activation; assay: cells; format: cell-based, rat; details: for inhibition at 10 µM: Rattus norvegicus; for Activity: Table 7, fib = fibrin, LPS, tox = toxicity
primary rat microglia [4] = details: rat
in vitro [5] = details: rat, Cell Toxicity IC50 (uM) [cFib assay]
in vitro [6] = details: rat
primary rat microglia [7] = assay: Cell toxicity (dead cells, size <150 μm2) in LPS assay; details: for IC50: read-out: Cell Toxicity IC50 (uM) [LPS assay], LPS assay; for LPS % cell toxicity: primary microglia HTS, LPS stimulation
primary rat microglia [8] = assay: Cell toxicity (dead cells, size <150 μm2) in coated fibrin (cFib) assay; details: primary microglia HTS, fibrin stimulation;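 as to Fibrin % cell toxicity: share of dead cells sized under 150 µm2 at 10 µM in fibrin-stimulated microglia HTS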
[9] = Table 3, read-out: Fibrin IC50 (uM) (Suppl. Table 7)
[10] = Table 6, read-out: Fibrin IC50 (uM) (Suppl. Table 7)
[11] = increased cell size (>800 μm^2) as marker of activation
[12] = 48 h, Table 1, dose response 0.001-20 μM, triplicates, primary rat microglia, 48 h, read-out: LPS IC50
[13] = 48 h, increased cell size (>800 μm^2) as marker of activation
[14] = LPS-induced microglia activation, dose response, read-out: LPS IC50 (uM) (Suppl. Table 7)
[15] = Table 3, read-out: LPS IC50 (uM) (Suppl. Table 7)
[16] = Table 6, read-out: LPS IC50 (uM) (Suppl. Table 7)
[17] = dose response, LPS-induced microglia activation, read-out: LPS IC50
[18] = HTS of 1907 compounds, quadrant by fibrin and LPS inhibition
[19] = Microglia, Table 3, read-out: Cherry-picked Hit (Suppl. Table 7)
[20] = Microglia, HTS hit classification, read-out: Hit
[21] = quadrant by fibrin and LPS inhibition in HTS of 1907 compounds
[22] = 48 h, Table 1, dose response 0.001-20 μM, triplicates, primary rat microglia, 48 h, read-out: Fibrin IC50
[23] = dose response, fibrin-induced microglia activation, read-out: Fibrin IC50
[24] = fibrin-induced microglia activation, dose response, read-out: Fibrin IC50 (uM) (Suppl. Table 7)
[25] = decreased size (<150 μm^2) as marker of toxicity
[26] = hit classification in microglia HTS, read-out: Cherry-picked Hit (Suppl. Table 7)

| Compound | IC50 [1, 9] | inhibition at 10 µM [1, 11] | IC50 [2, 12] | inhibition at 10 µM [2, 13] | IC50 [2, 14] | IC50 [2, 15] | IC50 [2, 17] | Quadrant (FIG. 5b) [3, 18] | inhibition at 10 µM [3, 19] | inhibition at 10 µM [3, 20] | Quadrant (FIG. 5b) ([3]; Table 1, screen at 10 μM) | Quadrant (FIG. 5b) ([3]; Table 3, screen at 10 μM) | Quadrant (FIG. 5b) [3, 21] | IC50 (in vitro [5]; cFib assay) | IC50 (in vitro [6]) | IC50 [1, 22] | IC50 [1, 23] | IC50 [1, 24] | LPS % cell toxicity (primary rat microglia [7]; [25]) | Fibrin % cell toxicity (primary rat microglia [8]; [25]) | further results |
| --- | --- | --- | --- | --- | --- | --- | --- | --- | --- | --- | --- | --- | --- | --- | --- | --- | --- | --- | --- | --- | --- |
| CC(=O)O[C@@]12CO[C@@H]1C[C@H](O)[C@@]1(C)C(=O)[C@H](O)C3=C(C)[C@@H](OC(=O)[C@H](O)[C@@H](NC(=O)OC(C)(C)C)c4ccccc4)C[C@@](O)([C@@H](OC(=O)c4ccccc4)[C@H]21)C3(C)C [Docetaxel, reference compound] | 0.002 µM | 64% | > 20 µM | 32% | > 20 µM | > 20 µM | > 20 µM | Q3 | > 50% | > 50% | Q3 | Q3 | Q3 | > 20 µM | > 20 µM | – | – | – | – | – | IC50 [1, 10]: 0.002 µM; Fibrin Selectivity (LOG10) ([1]; fibrin vs LPS, LOG10, Table 6): 3.99; Fibrin Selectivity ([1]; fibrin vs LPS, Table 6): 9814; IC50 [2, 16]: > 20 µM; Quadrant (FIG. 5b) ([3]; microglia HTS, Table 6): Q3; LPS % cell toxicity (primary rat microglia [4]): 1%; IC50 (in vitro [5]; Table 3): > 20 µM; IC50 (in vitro [5]; cFib assay, Table 6): > 20 µM; IC50 (primary rat microglia [7]): > 20 µM; IC50 (primary rat microglia [7]; Table 6): > 20 µM |
| Cc1ccc(S(=O)(=O)NC(=O)NN2CCCCCC2)cc1 [Tolazamide, reference compound] | 12 µM | 88% | > 20 µM | 42% | > 20 µM | > 20 µM | > 20 µM | Q3 | > 50% | > 50% | Q3 | Q3 | Q3 | > 20 µM | > 20 µM | 12 µM | 12 µM | 12 µM | 0% | 1% | Fibrin Selectivity [1]: 2; Fibrin Selectivity (LOG10) [1]: 0.23; IC50 (in vitro [5]; Table 3): > 20 µM; IC50 (primary rat microglia [7]): > 20 µM |
| CC(=O)OCC(=O)[C@@]1(O)CC[C@H]2[C@@H]3CCC4=CC(=O)CC[C@]4(C)[C@@]3(F)[C@@H](O)C[C@@]21C [Fludrocortisone acetate, reference compound] | < 0.001 µM | 104% | 0.4 µM | 101% | 0.4 µM | 0.4 µM | 0.4 µM | Q2 | > 50% | > 50% | Q2 | Q2 | Q2 | > 20 µM | > 20 µM | < 0.001 µM | < 0.001 µM | < 0.001 µM | 4% | 2% | Fibrin Selectivity [1]: 362; Fibrin Selectivity (LOG10) [1]: 2.56; IC50 [1, 10]: < 0.001 µM; IC50 ([1]; Table 7, read-out: fib_IC50): 0.002 µM; IC50 [2, 16]: 0.4 µM; IC50 ([2]; Table 7, read-out: LPS_IC50): 0.002 µM; Quadrant (FIG. 5b) ([3]; Table 2, screen at 10 μM): Q2; Activity [3]: fib/LPS; Quadrant (FIG. 5b) ([3]; microglia HTS, Table 6): Q2; IC50 (in vitro [5]; Table 3): > 20 µM; IC50 (in vitro [5]; cFib assay, Table 6): > 20 µM; IC50 (primary rat microglia [7]): > 20 µM; IC50 (primary rat microglia [7]; Table 6): > 20 µM |
| CC1(C)O[C@@H]2C[C@H]3[C@@H]4C[C@H](F)C5=CC(=O)C=C[C@]5(C)[C@@]4(F)[C@@H](O)C[C@]3(C)[C@]2(C(=O)CO)O1 [Fluocinolone acetonide, reference compound] | – | 105% | < 0.001 µM | 104% | < 0.001 µM | – | < 0.001 µM | Q2 | – | > 50% | Q2 | – | – | > 20 µM | > 20 µM | < 0.001 µM | < 0.001 µM | < 0.001 µM | 4% | 2% | IC50 ([1]; Table 7, read-out: fib_IC50): 0.002 µM; inhibition at 10 µM ([1]; activation = cell size >800 μm2): -35%; inhibition at 10 µM ([2]; 48 h, activation = cell size >800 μm2): 10%; IC50 ([2]; Table 7, read-out: LPS_IC50): 0.002 µM; inhibition at 10 µM [3, 26]: > 50%; Quadrant (FIG. 5b) ([3]; Table 2, screen at 10 μM): Q2; Activity [3]: fib/LPS; LPS % cell toxicity (primary rat microglia [7]; toxicity = cell size <150 μm2): 0%; Fibrin % cell toxicity (primary rat microglia [8]; toxicity = cell size <150 μm2): 1% |
| CN1CCN2c3ncccc3Cc3ccccc3C2C1 (stereo not drawn) [Mirtazapine, reference compound] | – | 57% | > 20 µM | 36% | > 20 µM | – | > 20 µM | Q3 | – | > 50% | Q3 | – | Q3 | > 20 µM | > 20 µM | > 20 µM | > 20 µM | > 20 µM | 1% | 2% | inhibition at 10 µM [3, 26]: > 50% |
| CCOC(=O)O[C@]1(C(=O)COC(=O)CC)CC[C@H]2[C@@H]3CCC4=CC(=O)C=C[C@]4(C)[C@H]3[C@@H](O)C[C@@]21C [Prednicarbate, reference compound] | 0.002 µM | 61% | > 20 µM | 73% | > 20 µM | > 20 µM | > 20 µM | Q2 | > 50% | > 50% | Q2 | Q2 | Q2 | > 20 µM | > 20 µM | 0.002 µM | 0.002 µM | 0.002 µM | 1% | 1% | Fibrin Selectivity [1]: 8510; Fibrin Selectivity (LOG10) [1]: 3.93; IC50 [1, 10]: 0.002 µM; IC50 [2, 16]: > 20 µM; Quadrant (FIG. 5b) ([3]; microglia HTS, Table 6): Q2; IC50 (in vitro [5]; Table 3): > 20 µM; IC50 (in vitro [5]; cFib assay, Table 6): > 20 µM; IC50 (primary rat microglia [7]): > 20 µM; IC50 (primary rat microglia [7]; Table 6): > 20 µM |
| CC(NCCc1ccc(O)cc1)C(O)c1ccc(O)cc1 (stereo not drawn) [Ritodrine hydrochloride, reference compound] | 0.6 µM | 51% | > 20 µM | 36% | > 20 µM | > 20 µM | > 20 µM | Q3 | > 50% | > 50% | Q3 | Q3 | Q3 | > 20 µM | > 20 µM | 0.6 µM | 0.6 µM | 0.6 µM | 1% | 1% | Fibrin Selectivity [1]: 33; Fibrin Selectivity (LOG10) [1]: 1.51; IC50 [1, 10]: 0.6 µM; Fibrin Selectivity (LOG10) ([1]; fibrin vs LPS, LOG10, Table 6): 1.51; Fibrin Selectivity ([1]; fibrin vs LPS, Table 6): 33; IC50 [2, 16]: > 20 µM; Quadrant (FIG. 5b) ([3]; microglia HTS, Table 6): Q3; IC50 (in vitro [5]; Table 3): > 20 µM; IC50 (in vitro [5]; cFib assay, Table 6): > 20 µM; IC50 (primary rat microglia [7]): > 20 µM; IC50 (primary rat microglia [7]; Table 6): > 20 µM |
